We go through 19 compounds from paper PMC8010720 (bioRxiv, 2021).

One data set has as its system A549 cells. The format is cell-based, human. The note with it: for induction of phospholipidosis: NBD-PE staining, A549 cells.
Data set [1] concerns SARS-CoV-2 infected A549-ACE2 cells. The format is cell-based.
A further data set concerns the target human sigma-2 receptor (Homo sapiens, UniProt Q5BJF2). The settings on record: radioligand displacement, fractional binding at 1 μM (Fig. 2E).
A further data set has as its target human sigma-1 receptor (Homo sapiens, UniProt Q99720). Type of data set: binding.
Data set [2] concerns SARS-CoV-2. The settings on record: for effect on lung viral titer / viral propagation in mice: in vivo.
The test system of data set [3] is SARS-CoV-2. Kind of data set: Cellular antiviral assays against SARS-CoV-2. The format is cell-based.

Molecules are shown by their SMILES. Entries after “also recorded” stand apart in the source; their conditions may differ. Where two headings read alike, the source gives them in different places.

Chain of human sigma-2 receptor (Q5BJF2 whole entry): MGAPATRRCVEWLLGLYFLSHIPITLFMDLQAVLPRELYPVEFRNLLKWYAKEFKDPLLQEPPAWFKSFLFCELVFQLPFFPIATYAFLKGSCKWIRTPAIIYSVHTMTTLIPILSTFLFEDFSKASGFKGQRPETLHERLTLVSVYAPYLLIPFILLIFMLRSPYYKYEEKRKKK
Chain of human sigma-1 receptor (Q99720 whole entry): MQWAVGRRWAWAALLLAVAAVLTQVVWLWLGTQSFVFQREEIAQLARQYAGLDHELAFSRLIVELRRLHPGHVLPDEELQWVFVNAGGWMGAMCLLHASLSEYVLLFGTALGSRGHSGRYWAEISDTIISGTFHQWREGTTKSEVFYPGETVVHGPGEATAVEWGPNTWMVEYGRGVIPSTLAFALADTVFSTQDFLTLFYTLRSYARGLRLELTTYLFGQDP

In the case of `CC[C@H]1OC(=O)[C@H](C)[C@@H](O[C@H]2C[C@@](C)(OC)[C@@H](O)[C@H](C)O2)[C@H](C)[C@@H](O[C@@H]2O[C@H](C)C[C@H](N(C)C)[C@H]2O)[C@](C)(O)C[C@@H](C)CN(C)[C@H](C)[C@@H](O)[C@]1(C)O` [Azithromycin], the “induction of phospholipidosis” value in the data set with A549 cells was “confirmed phospholipidosis-inducing activity”.

As for `CN1CCC[C@@H]1CCO[C@](C)(c1ccccc1)c1ccc(Cl)cc1` [Clemastine], in the data set with A549 cells, the “phospholipidosis (DIPL)” value is > 50 % of amiodarone.

For `CCN(CCO)CCCC(C)Nc1ccnc2cc(Cl)ccc12` (stereo not shown) [Hydroxychloroquine], the “NBD-PE aggregates vs DMSO” value in data set [1] is on record as “substantial increases in NBD-PE aggregates”.

In the case of `CNCC[C@H](Oc1cccc2ccccc12)c1cccs1` [Duloxetine], the phospholipidosis inducer class result in the data set with A549 cells is listed as “strong (key: > 50% of the strong phospholipidosis inducer amiodarone; medium: 50% > DIPL > 25% of amiodarone)”.

For `O=C1NCN(c2ccccc2)C12CCN(CCCC(c1ccc(F)cc1)c1ccc(F)cc1)CC2` [Fluspirilene], the phospholipidosis inducer class result in the data set on A549 cells (DIPL relative to amiodarone) is “medium (key: > 50% of the strong phospholipidosis inducer amiodarone; medium: 50% > DIPL > 25% of amiodarone)”.

As for `COc1cccc2c1CCCC2CCCN1CCN(C2CCCCC2)CC1` (stereo not shown) [PB28], the “NBD-PE aggregates vs DMSO” value in data set [1] is listed as “substantial increases in NBD-PE aggregates”. Further, in the data set on A549 cells, the “induction of phospholipidosis” value is given as “both induce phospholipidosis”. The “sigma-2 binding” value on human sigma-2 receptor was “strong ligand of both sigma-1 and sigma-2”. Also, the “sigma-1 binding” value at human sigma-1 receptor is “strong ligand of both sigma-1 and sigma-2”. For the same compound, in the data set with SARS-CoV-2 [2], the “effect on lung viral titer / viral propagation in mice” value is reported as “no substantial effect on viral propagation”.

Turning to `CN(C)CCOc1ccc(/C(=C(/CCCl)c2ccccc2)c2ccccc2)cc1` [Toremifene], the phospholipidosis inducer class result in the data set with A549 cells (DIPL relative to amiodarone) is “strong (key: > 50% of the strong phospholipidosis inducer amiodarone; medium: 50% > DIPL > 25% of amiodarone)”.

For `Cc1ccccc1NC(=N)Nc1ccccc1C` [DTG, ditolylguanidine], in the data set on A549 cells, the “induction of phospholipidosis” value is on record as “did not induce phospholipidosis”. Moreover, in the data set with SARS-CoV-2 [3], the “antiviral activity against SARS-CoV-2 in cells” value (from here on “antiviral activity”) is “not antiviral; also recorded: no measurable antiviral effects”.

In the case of `Cc1c2ccncc2c(C)c2c1[nH]c1ccccc12` [Ellipticine], the phospholipidosis inducer class result in the data set with A549 cells (DIPL relative to amiodarone) is recorded as “medium (key: > 50% of the strong phospholipidosis inducer amiodarone; medium: 50% > DIPL > 25% of amiodarone)”. Besides, the “induction of phospholipidosis” value in the data set on A549 cells is recorded as “confirmed phospholipidosis-inducing activity”.

`CC(C)(C)c1ccc(C(=O)CCCN2CCC(OC(c3ccccc3)c3ccccc3)CC2)cc1` [Ebastine]: the “induction of phospholipidosis” value with A549 cells was “confirmed phospholipidosis-inducing activity”.

Regarding `COc1cc2c(cc1OC)CN(CCc1ccc(NC(=O)c3cccc4c(=O)c5cccc(OC)c5[nH]c34)cc1)CC2` [Elacridar], the “induction of phospholipidosis” value in the data set with A549 cells is reported as “non-phospholipidosis inducing”. Further, in the data set with SARS-CoV-2 [2], the “effect on lung viral titer / viral propagation in mice” value is “modest antiviral effect”. In addition, the “dose above which mice exhibited toxicities” value with SARS-CoV-2 [2] (mice, i.p. once per day) was “higher than 3 mg/kg”.

With `CN[C@H]1CC[C@@H](c2ccc(Cl)c(Cl)c2)c2ccccc21` [Sertraline], the “NBD-PE aggregates vs DMSO” value in data set [1] was “substantial increases in NBD-PE aggregates”. Further, in the data set with A549 cells, the “phospholipidosis (DIPL)” value is > 50 % of amiodarone. In the data set on SARS-CoV-2 [2], the “effect on lung viral titer / viral propagation in mice” value is recorded as “no substantial effect on viral propagation”. Moreover, in the data set on SARS-CoV-2 [3], the “antiviral activity” value is listed as “mid-to high-nM activities against viral replication”.

Regarding `CCSc1ccc2c(c1)N(CCCN1CCN(C)CC1)c1ccccc1S2` [Thiethylperazine], the phospholipidosis inducer class result in the data set on A549 cells (DIPL relative to amiodarone) is recorded as “medium (key: > 50% of the strong phospholipidosis inducer amiodarone; medium: 50% > DIPL > 25% of amiodarone)”.

`CCCCc1oc2ccccc2c1C(=O)c1cc(I)c(OCCN(CC)CC)c(I)c1` [Amiodarone]: the “NBD-PE aggregates vs DMSO” value in data set [1] is “substantial increases in NBD-PE aggregates”. For the same compound, the “effect on lung viral titer / viral propagation in mice” value with SARS-CoV-2 [2] was “no substantial effect on viral propagation”. In the data set on SARS-CoV-2 [3], the “antiviral activity” value is listed as “mid-to high-nM activities against viral replication”.

`COc1cc2nc(N3CCCN(C)CC3)nc(NC3CCN(Cc4ccccc4)CC3)c2cc1OC` [Bix 01294]: in data set [1], the “NBD-PE aggregates vs DMSO” value was “substantial increases in NBD-PE aggregates” and the “SARS-CoV-2 spike protein signal” value is on record as “nearly complete loss of spike protein signal”. Moreover, the “induction of phospholipidosis” value in the data set with A549 cells was “confirmed phospholipidosis-inducing activity”.

In the case of `CN1CCC(CN2c3ccccc3Sc3ccccc32)C1` (stereo not shown) [Methdilazine], the phospholipidosis inducer class entry with A549 cells (DIPL relative to amiodarone) is reported as “medium (key: > 50% of the strong phospholipidosis inducer amiodarone; medium: 50% > DIPL > 25% of amiodarone)”.

Take `Cc1cc2c(s1)Nc1ccccc1N=C2N1CCN(C)CC1` [Olanzapine]: the phospholipidosis inducer class entry with A549 cells (DIPL relative to amiodarone) is reported as “medium (key: > 50% of the strong phospholipidosis inducer amiodarone; medium: 50% > DIPL > 25% of amiodarone)”. In addition, the “induction of phospholipidosis” value with A549 cells is on record as “did induce phospholipidosis”.

As for `CC/C(=C(\c1ccccc1)c1ccc(OCCN(C)C)cc1)c1ccccc1` [Tamoxifen], the “effect on lung viral titer / viral propagation in mice” value with SARS-CoV-2 [2] was “no substantial effect on viral propagation”. The “antiviral activity” value in the data set on SARS-CoV-2 [3] was “mid-to high-nM activities against viral replication”.

Consider `CC1CCN(CCCC(=O)c2ccc(F)cc2)CC1` [Melperone], for which the “induction of phospholipidosis” value in the data set on A549 cells was “did not induce phospholipidosis; also recorded: non-phospholipidosis inducing”. Besides, the “antiviral activity” value in the data set on SARS-CoV-2 [3] is on record as “not antiviral; also recorded: no measurable antiviral effects”.
